# Measured values reported in patent publication US8193147B2, “Use of copolymer 1 for treatment of muscular dystrophy” (Hadasit Medical Research Services & Development Ltd., priority 2007, dated 2012).
# Experiments:
# Assay type in all cases: in vivo, mouse
# [1] = system: HO (homozygote) dy^2j mice; test: Grip strength of hind and fore limbs (Grip Strength Meter) in GA-treated dy2J mice; conditions: for hind limbs strength (muscle grip strength per body weight): between week 7 and week 19, p=0.0017, FIG. 1A
# Experimental: (§1) Population: Twenty C57BL old mice were randomly divided into 4 groups (5 in each group):
# 1. WT mice—treated saline 100 μl/IP
# 2. WT mice—treated with 200 μg GA/IP
# 3. HO mice—treated Saline 100 μl/IP
# 4. HO mice—treated with 200 μg GA/IP
# (§2) At 5 weeks of age WT and dy^2J animals were randomly divided to the treated and control groups. The animals were treated three times a week for 13 weeks.
# Measurement of muscle strength (blind measurement). Once a week weight gain and total peak force (in Gram force/g bodyweight) were determined using electronic Grip Strength Meter, Columbus Instruments (Columbus, Ohio). Muscle strength measurements of both fore and hind limbs were performed according to Connolly A. M. et al., 2001. Mice were brought to the testing room and allowed to acclimatize for 10 minutes before the test begins. Five measurements (fore and hind limbs) were taken from each animal. The three highest measurements for each animal were averaged to give the strength score. Between the fore and hind measurements the mice were allowed to rest for 10 minutes. All measurements were performed by the same person.
# [2] = system: HO (homozygote) dy^2j mice; test: Motion analysis by video-recording (EthoVision), HO dy2J mice
# Experimental: as §1, §2
# (§3) Motion analysis by video-recording. At the end of the experiment (19 week of age) animal mobility and well-being were video recorded for 10 minutes sessions. The video films were analyzed using the EthoVision system (NBT-New Biotechnology, Jerusalem, Israel, video tracking system recording of activity and movement). Quantitative parameters of mobility of the animals including total distance, maximum distance in 0.2 second, average and peak velocity were calculated.
# [3] = system: WT (wild type) C57BL mice; test: Motion analysis by video-recording (EthoVision), WT mice; conditions: WT GA vs WT saline
# Experimental: as §1, §2, §3
# [4] = system: dy^2j mice; test: Muscle biopsy histology (Hematoxylin-Eosin), muscular fibrosis; conditions: dy^2j mice treated with GA for 12 weeks vs untreated; biopsies in week 17; FIG. 7
# Experimental: Tissue analysis. […]
# Muscle biopsies. Muscle biopsies were obtained from the hind limbs and were tested for:
# 1. Muscle histology hematoxylin and eosin stain (H&E) and Gommori trichrome stains
# [5] = system: WT and dy^2J mice; test: Observation of side effects during treatment; conditions: treated group; 200 μg GA IP three times a week for 13 weeks
# Experimental: as §2
# No animal had paralysis with inability to reach food or water or dramatic weight loss (more than 10% weight loss between two weightings or 20% or more than its initial weight) or any other severe stress signs, that would necessitate withdrawal of the animal from the experiment.
substance,measurement,setting,value
glatiramer acetate [GA],fore limbs strength (muscle grip strength per body weight),"[1]; GA 200 μg IP three times a week, GA-treated HO vs untreated HO, p=0.13, FIG. 1B",only minimal effect
same,hind limbs strength (muscle grip strength per body weight),"[1]; GA 200 μg IP three times a week, GA-treated HO vs untreated HO",Significant increase
same,hind limbs strength (muscle grip strength per body weight),"[1]; GA 200 μg IP three times a week, GA-treated HO vs untreated HO, listed as Cop 1",improved significantly
same,"percentage of hind limbs strength, end of the experiment","[1]; HO treated mice, age 19 weeks, 100% = WT saline group at age seven weeks, FIG. 2",95.26%
same,"percentage of hind limbs strength, initial","[1]; HO treated mice, week 7, 100% = WT saline group at age seven weeks, FIG. 2",62.74%
same,hind limbs muscle strength compared with wild type mice,"[1]; treated dy^2j mice, at the end of the experiment, IP injection",as strong as the wild type mice
same,maximal distance in 0.2 sec period,"[2]; HO GA treated vs untreated, p=0.016, FIG. 6",significantly longer
same,total 10-minutes average distance,"[2]; HO GA treated vs untreated, p=0.052, FIG. 5",significantly longer
same,total ten minutes average velocity,"[2]; HO GA-treated (n=5) vs untreated (n=4), p=0.051, FIG. 3",significantly faster
same,peak velocity in 0.2 sec period,"[2]; HO GA-treated vs HO untreated, p=0.017, FIG. 4",significantly faster
same,mobility,[2]; treated dy^2j mice vs untreated dy^2j mice,improved significantly
same,mobility compared with wild type mice,"[2]; treated dy^2j mice, at the end of the experiment",undistinguishable from the mobility of the wild type mice
same,peak velocity in 0.2 sec period,"[3]; p=0.38, FIG. 4",not significantly different
same,maximal distance in 0.2 sec period,"[3]; p=0.39, FIG. 6",not significantly different
same,total ten minutes average velocity,"[3]; p=0.51, FIG. 3",not significantly different
same,total 10-minutes average distance,"[3]; p=0.51, FIG. 5",not significantly different
same,muscular fibrosis in muscle biopsies,[4],significantly reduced muscular fibrosis
same,side effects,[5],No other side effects were noted
